Measurements reported in patent publication US11345707B2, “Atropisomerism for increased kinase inhibitor selectivity” (SAN DIEGO STATE UNIVERSITY RESEARCH FOUNDATION, priority 2015, dated 2022).

Key:
[1] = Experimental measurement of the barriers to rotation (racemization followed by chiral HPLC); format: physicochemical
Experimental: The enantiomerically enriched analogues were then dissolved in ethanol and placed in a sealed 2-dram vial and heated under constant temperature on an aluminum block. At each time point, an aliquot of the mixture was removed and quenched in an HPLC vial containing ice cold 80:20 hexanes:ethanol. […] The timepoint and enantiomeric excess (ee) data was then plotted in order to determine an observed rate constant, kobs, at the corresponding temperature. The barrier to rotation was then calculated using the relationship of kracemization=2*kenantiomerization and then substituted into the Gibbs Free Energy Equation:
[formula] where h=Planck Constant, kb=Boltzmann Constant, T=Temp. (K), R=Gas Constant.

[2] = tested on: panel of tyrosine kinases; test: Kinase inhibitor profiling across a panel of tyrosine kinases (Z′-LYTE), selectivity score; format: biochemical
Experimental: To analyze each analog's selectivity across the panel we turned to selectivity scores (Davis et al., Nat. Biotechnol. 2011, 29, 1046-51), simply the number of kinases inhibited above a certain threshold divided by the number of kinases evaluated. […] For example at 1000 nM 2e-(R) yielded an S(40%) of 0.11 while 2e-(S) gave an S(40%) of 0.16. […] Differences in selectivity between 2e-(R) and 2e-(S) at 5000 nM (4.5 times the IC50 of 2e-(S) toward Src) and for 5 at 1000 nM (6.25 times the IC50 of 5 toward Src) can be viewed graphically across tyrosine kinases (FIG. 3). Importantly, similar trends were also observed across each of the atropisomeric series tested.
All samples were sent out to Life Technologies to obtain kinase inhibition data. A brief description of the assays and analyses are included below.
Assay Theory (SelectScreen® Kinase Profiling Services (Life Technologies, Madison, Wis. USA). The Z′-LYTE® biochemical assay employs a fluorescence-based, coupled-enzyme format and is based on the differential sensitivity of phosphorylated and non-phosphorylated peptides to proteolytic cleavage. The peptide substrate is labeled with two fluorophores—one at each end—that make up a FRET pair.
In the primary reaction, the kinase transfers the gamma-phosphate of ATP to a single tyrosine, serine or threonine residue in a synthetic FRET-peptide. In the secondary reaction, a site-specific protease recognizes and cleaves non-phosphorylated FRET-peptides. Phosphorylation of FRET-peptides suppresses cleavage by the Development Reagent. Cleavage disrupts FRET between the donor (i.e., coumarin) and acceptor (i.e., fluorescein) fluorophores on the FRET-peptide, whereas uncleaved, phosphorylated FRET-peptides maintain FRET. A ratiometric method, which calculates the ratio (the Emission Ratio) of donor emission to acceptor emission after excitation of the donor fluorophore at 400 nm, is used to quantitate reaction progress, as shown in the equation below: […]
A significant benefit of this ratiometric method for quantitating reaction progress is the elimination of well-to-well variations in FRET-peptide concentration and signal intensities. As a result, the assay yields very high Z′-factor values (>0.7) at a low percent phosphorylation. Both cleaved and uncleaved FRET-peptides contribute to the fluorescence signals and therefore to the Emission Ratio. The extent of phosphorylation of the FRET-peptide can be calculated from the Emission Ratio. The Emission Ratio will remain low 1f the FRET-peptide is phosphorylated (i.e., no kinase inhibition) and will be high 1f the FRET-peptide is non-phosphorylated (i.e., kinase inhibition).
Both cleaved and uncleaved FRET-peptides contribute to the fluorescence signals and therefore to the Emission Ratio. The extent of phosphorylation of the FRET-peptide can be calculated from the Emission Ratio. The Emission Ratio will remain low 1f the FRET-peptide is phosphorylated (i.e., no kinase inhibition) and will be high 1f the FRET-peptide is non-phosphorylated (i.e., kinase inhibition).

Structure (SMILES): COc1ccc(Cl)c(-c2c(Cl)n(C3CCCC3)c3ncnc(N)c23)c1 (racemic) [Compound 1e, 6-chloro-5-(2-chloro-5-methoxyphenyl)-7-cyclopentyl-7H-pyrrolo[2,3-d]pyrimidin-4-amine]
- t1/2 to Racemization at 37° C. [1]: 18 days

Structure (SMILES): COc1ccc(Cl)c(-c2c(Cl)n(C(C)(C)C)c3ncnc(N)c23)c1 (single isomer, unassigned) [2e-(R), 7-(tert-butyl)-6-chloro-5-(2-chloro-5-methoxyphenyl)-7H-pyrrolo[2,3-d]pyrimidin-4-amine]
- S(40%): number of kinases inhibited greater than 40% divided by number of kinases tested (including Src) ([2]; 1000 nM): 0.11
- S(40%): number of kinases inhibited greater than 40% divided by number of kinases tested (including Src) ([2]; 5000 nM): 0.44

Structure (SMILES): COc1cccc(-c2cn(C(C)(C)C)c3ncnc(N)c23)c1 [Compound 5, reference compound]
- S(40%): number of kinases inhibited greater than 40% divided by number of kinases tested (including Src) ([2]; 200 nM): 0.44
- activity for the tyrosine kinase panel tested ([2]; 200 nM and 1000 nM): near pan activity
- S(40%): number of kinases inhibited greater than 40% divided by number of kinases tested (including Src) ([2]; 1000 nM): 0.72

Structure (SMILES): COc1ccc(Cl)c(-c2c(Cl)n(C(C)(C)C)c3ncnc(N)c23)c1 (single isomer, unassigned) [2e-(S), 7-(tert-butyl)-6-chloro-5-(2-chloro-5-methoxyphenyl)-7H-pyrrolo[2,3-d]pyrimidin-4-amine]
- S(40%): number of kinases inhibited greater than 40% divided by number of kinases tested (including Src) ([2]; 1000 nM): 0.16
- S(40%): number of kinases inhibited greater than 40% divided by number of kinases tested (including Src) ([2]; 5000 nM): 0.61
